Earlier results as cited in patent US20100280059A1, “COMPOSITIONS COMPRISING AN ANTIHISTAMINE, A[…] DE[…] EXTENDED RELEASE FORMULATIONS” (Atley Pharmaceuticals, Inc., priority 2009, published 2010).
Read-outs that look alike come from different tables or passages of the source.

Legend:
[1] = not given; remark: listed apart in the source
[2] = not given; remark: listed apart in the source
[3] = single IR oral dose of 10 mg HC, 5 male human subjects

For `CN[C@@H](C)[C@@H](O)c1ccccc1` [PSE, pseudoephedrine], the half-life (affected by urinary pH) is given as 9 to 16 h, the Tmax (following administration) is given as 1.5 to 2.4 h and the “dose excreted unchanged in the urine” value (within 24 hours of dosing) is given as “up to 90%”.

In the case of `COc1ccc2c3c1O[C@H]1C(=O)CC[C@H]4[C@@H](C2)N(C)CC[C@]314` [HC, hydrocodone], the “share of total excretion occurring in the first 24 hours” value ([1]; after a single oral dose) is given as “About 70%”, the “elimination half-life of the parent-compound” value ([1]; in vivo) is given as 3.8 to 4.5 h and the Tmax [1, 3] is given as “approximately 1.3±0.3 hours”. For the same compound, the “mean peak serum concentration” value [1, 3] was 23.6 ± 5.2 ng/mL.

For `CN(C)CCC(c1ccc(Cl)cc1)c1ccccn1` (stereo not shown) [CPM, chlorpheniramine], the “excreted in the feces” value ([2]; in vivo) is listed as “Less than 1%”, the “renal elimination as share of total excretion” value ([2]; in vivo) is listed as “approximately 50%” and the “excreted in the urine” value ([2]; metabolism to monodesmethyl and didesmethyl compounds) is listed as “up to 26%”.
